Results published in patent publication US4792550A, “13-aza-14-oxo-TXA2 analogues” (Ono Pharmaceutical Co., Ltd., priority 1984, dated 1988).
Read-outs that look alike come from different tables or passages of the source.

Key:
[1] = test system: platelet aggregation induced by STA2 in human blood; test: Inhibitory activity of platelet aggregation induced by STA2 in human blood; format: cell-based; conditions: method of Born, read-out: concentrations required 50% inhibition on platelet aggregation (IC50)
Protocol: (i) concentrations required 50% inhibition (IC50) on platelet aggregation using human blood induced by STA2 (9,11-epithio-15-hydroxy-11a-carbathromb-5Z,13E-dienoic acid), and
(i) Inhibitory activitv of platelet aggregation induced by STA2 in human blood
Whole blood of healthy human adult was collected with citric acid, and the mixture (20 ml) was centrifuged (180×g) for 10 min. The surpernatant obtained was diluted with sufficient platelet poor plasma to obtain plasma which contains 300,000 platelet cells per μl.
A solution of tested compound in ethanol (1 μl) was added to the obtained plasma (250 μl), and then a solution of STA2 in ethanol was added to the mixture. The measurement was carried out followed by the method of Born and then IC50 was calculated.

[2] = test system: contraction of artery induced by STA2; test: Inhibitory activity on contraction of artery (increase of blood pressure) induced by STA2 in guinea pig; format: in vivo; conditions: male guinea pig, 100 μg/kg i.v., blood pressure at carotid artery; for inhibition in vivo at 0.1 mg/kg: Cavia porcellus, iv, read-out: Inhibitory ratios on contraction of artery
Protocol: (ii) inhibitory percentages on contraction of artery induced by STA2 in guinea pigs.
(ii) Inhibitory activity of increasing of blood pressure
A glycine-sodium hydroxide buffer solution (pH 10) of tested compound was administered intravenously to a urethaneanaesthetized male guinea pig weighing 200-350 g, at a rate of 100 μg/kg animal body weight via carotid vein.
And a solution of STA2 in phosphate buffer (pH 7.4) was administered intravenously. Change of the blood pressure was measured at carotid artery and then inhibition ratio (%) was calculated.

Structure (SMILES)	IC50 ([1]; Homo sapiens, Platelet)	inhibition in vivo at 0.1 mg/kg [2]	Inhibitory ratios on contraction of artery [2]	IC50 [1]
CC1(C)[C@H]2C[C@H](NC(=O)CC3CCCC3)[C@@H](C/C=C\CCCC(=O)O)[C@@H]1C2 [2(g)]	0.42 µM	39%	–	–
CC(C)C(O)C(=O)N[C@H]1C[C@H]2C[C@@H]([C@@H]1C/C=C\CCCC(=O)O)C2(C)C (single isomer, unassigned) [1(jj)]	0.3 µM	–	46.8%	–
CC(CC(=O)N[C@H]1C[C@H]2C[C@@H]([C@@H]1C/C=C\CCCC(=O)O)C2(C)C)Cc1ccccc1 (some centres unmarked) [1(w)]	0.19 µM	60.5%	–	–
CCCCCC(O)C(=O)N[C@H]1C[C@H]2C[C@@H]([C@@H]1C/C=C\CCCC(=O)O)C2(C)C (some centres unmarked) [1(c)]	0.32 µM	71.2%	–	–
CC1(C)[C@H]2C[C@H](NC(=O)CCSc3ccccc3)[C@@H](C/C=C\CCCC(=O)O)[C@@H]1C2 [1(aa)]	0.29 µM	66.4%	–	–
CC1(C)[C@H]2C[C@H](NC(=O)C(O)CCc3ccccc3)[C@@H](C/C=C\CCCC(=O)O)[C@@H]1C2 (some centres unmarked) [1(b)]	0.28 µM	75.2%	–	–
CC1(C)[C@H]2C[C@H](NC(=O)C3CCCC3)[C@@H](C/C=C\CCCC(=O)O)[C@@H]1C2 [1(o)]	0.56 µM	34.2%	–	–
CC(C)CCC(=O)N[C@H]1C[C@H]2C[C@@H]([C@@H]1C/C=C\CCCC(=O)O)C2(C)C [1(hh)]	0.3 µM	42%	–	–
CC1(C)[C@H]2C[C@H](NC(=O)CCCc3cccc(Cl)c3)[C@@H](C/C=C\CCCC(=O)O)[C@@H]1C2 [1(r)]	0.67 µM	58.6%	–	–
CCC(C)CC(=O)N[C@H]1C[C@H]2C[C@@H]([C@@H]1C/C=C\CCCC(=O)O)C2(C)C (some centres unmarked) [1(dd)]	0.55 µM	37.1%	–	–
CCCCC(=O)N[C@H]1C[C@H]2C[C@@H]([C@@H]1C/C=C\CCCC(=O)O)C2(C)C [2(j)]	0.56 µM	27.3%	–	–
CC(C)CC(=O)N[C@H]1C[C@H]2C[C@@H]([C@@H]1C/C=C\CCCC(=O)O)C2(C)C [1(ee)]	0.38 µM	39%	–	–
CC1(C)[C@H]2C[C@H](NC(=O)CCCCc3ccccc3)[C@@H](C/C=C\CCCC(=O)O)[C@@H]1C2 [3(g)]	0.63 µM	60.5%	–	–
CC(C)C(O)C(=O)N[C@H]1C[C@H]2C[C@@H]([C@@H]1C/C=C\CCCC(=O)O)C2(C)C (single isomer, unassigned) [1(kk)]	–	–	18.5%	0.26 µM
CC1(C)[C@H]2C[C@H](NC(=O)CC3Cc4ccccc4C3)[C@@H](C/C=C\CCCC(=O)O)[C@@H]1C2 [1(cc)]	0.71 µM	–	–	–
CC1(C)[C@H]2C[C@H](NC(=O)CCCc3ccccc3)[C@@H](C/C=C\CCCC(=O)O)[C@@H]1C2 [3(c)]	0.43 µM	78.1%	–	–
CC1(C)[C@H]2C[C@H](NC(=O)C(Cl)C3CCCC3)[C@@H](C/C=C\CCCC(=O)O)[C@@H]1C2 (some centres unmarked) [2(h)]	0.45 µM	57.6%	–	–
CCCCCC(=O)N[C@H]1C[C@H]2C[C@@H]([C@@H]1C/C=C\CCCC(=O)O)C2(C)C [Example 6, 9α,11α-dimethylmethano-13-aza-14-oxo-20-nor-11a-carbathromb-5Z-enoic acid]	0.67 µM	78.1%	–	–
